Patent publication US12006278B1, “4,4′-naphthalene-1,5-diylbis(diazene-2,1-diyl)diphenol as an antioxidant compound” (KING FAISAL UNIVERSITY, priority 2023, dated 2024)

Test: DPPH radical scavenging antioxidant test
Conditions: 517 nm; for Inhibition (radical scavenging inhibition): compound 3 μM in ethanol + 0.2 mL DPPH (0.75 mM), 30 min incubation in the dark
Experimental: The antioxidant properties of the 4,4′-naphthalene-1,5-diylbis(diazene-2,1-diyl)diphenol were studied by adding 0.2 mL DPPH (0.75 mM)) to compound 4,4′-naphthalene-1,5-diylbis(diazene-2,1-diyl)diphenol (III) (3 μM) in ethanol. After 30 min of incubation in the dark, the absorbance was read against a blank at 517 nm. Ascorbic acid (vitamin C) was used as standard antioxidants (positive control). A blank sample was prepared by 0.2 ml of DPPH in 3 ml ethanol. A negative control sample was run using ethanol instead of the sample. The radical scavenging inhibition was calculated using the following equation: […]

Structure (SMILES)	antioxidant potential compared to vitamin C (result in words) (DPPH in vitro test, vitamin C as positive control)	Inhibition (radical scavenging inhibition) [%]
Oc1ccc(/N=N\c2cccc3c(/N=N/c4ccc(O)cc4)cccc23)cc1 [Product III, 4,4′-naphthalene-1,5-diylbis(diazene-2,1-diyl)diphenol]	high potential as an antioxidant	54
O=C1O[C@H]([C@@H](O)CO)C(O)=C1O [vit c, Ascorbic acid, reference compound]	–	74
